“And” between values parts separate entries of the source, which are not always exact repeats. Identical values can stand only once. Peptide text beside a SMILES is read from it.
Tested on: PC12 cells
Assay: Dopamine release from PC12 cells after dipeptide addition (LC-MS/MS of supernatant)
Format: cell-based
Details: 6 hours; for Change in dopamine concentration compared to the non-stimulated group / Dopamine concentration after stimulation, Mean ± Standard deviation / Percentage relative to non-stimulated group: 1 mM dipeptide; for Change in dopamine concentration compared to the non-stimulated group: Student's t-test, significance level 5%; for Dopamine concentration after stimulation, Mean ± Standard deviation: 3 wells; for Dopamine concentration after stimulation, Mean ± Standard deviation / Dopamine concentration after stimulation: 37° C., supernatant; for Percentage relative to non-stimulated group: dopamine concentration, non-stimulated group = 100; for Dopamine concentration after stimulation: individual wells, 1 mM dipeptide in medium
Description: PC12 cells were seeded in a 96-well plate at a cell count of 2×10^4 cells/well using DMEM containing 10% by volume of HS (Horse Serum), 10% by volume of FBS (Fetal Bovine Serum), 100 units/mL of penicillin and 100 μg/mL of streptomycin. The cells were cultured at 5% CO2 by volume and 37° C. The cells were cultured for 3 to 5 days to ensure that they were confluent, and then used for experiments.
The culture medium was removed from PC12 cells, which were washed twice with PBS (Phosphate Buffered Saline). The wells of the 96-well plate were divided into 5 groups: non-stimulated group (5 wells), WF administration group (3 wells), WH administration group (3 wells), WM administration group (3 wells) and WR administration group (3 wells). The WR administration group corresponds to Inventive Example, and the non-stimulated group, WF administration group, WH administration group and WM administration group correspond to Comparative Examples.
DMSO (Dimethyl Sulfoxide) was added to the same medium as the medium used to culture PC12 cells, thereby preparing a medium containing 1% by […] of DMSO. Dipeptide WF was added to the same medium as the medium used to culture PC12 cells, thereby preparing a medium containing 1 mM dipeptide WF. In the same way, a medium containing 1 mM dipeptide WH, a medium containing 1 mM dipeptide WM and a medium containing 1 mM dipeptide WR were prepared. The medium containing 1% by volume of DMSO (Dimethyl Sulfoxide) was added to the non-stimulated group, the medium containing 1 mM dipeptide WF was added to the WF administration group, the medium containing 1 mM dipeptide WH was added to the WH administration group, the medium containing 1 mM dipeptide WM was added to the WM administration group, and the medium containing 1 mM dipeptide WR was added to the WR administration group. These groups were incubated at 37° C. for 6 hours. After the incubation, supernatant of each well was collected.
Each supernatant was transferred onto ice. To each supernatant, 25 μL of 2M perchloric acid was added for protein removal, and after 10 minutes, 50 μL of 1M sodium acetate was added for neutralization. After 15 minutes, centrifugation was performed at 4° C. and 20000 G for 20 minutes. 100 μL of each supernatant was collected, and after added with 10 μL of 2 mM 3,4-dihydroxybenzylamine (DHBA) as an internal standard, it was passed through a chromatodisk to obtain a sample. The obtained sample was used for liquid chromatography-tandem mass spectrometry (LC-MS/MS).
LC-MS/MS was performed using a Triple TOF 6600+ system manufactured by SCIEX under the following measurement conditions. A calibration curve was prepared using pure products, and after correcting the peak area of dopamine with the peak area of the internal standard (DHBA), the dopamine concentration (nM) in each sample was calculated from the calibration curve. • Equipment: Triple TOF 6600+ System (SCIEX, Massachusetts, USA) • Column: Inertsil (registered trademark) ODS-4 (GL Sciences, Tokyo, Japan) • Eluent A: 0.1% aqueous solution of formic acid • Eluent B: 0.1% methanol solution of formic acid • Gradient conditions: As listed in Table 1
Data are presented as mean±standard deviation. For statistical processing, Student's t-test was used for comparisons between the non-stimulated group and each administration group. The significance level was set at 5%.

Row | Structure (SMILES) | Change in dopamine concentration compared to the non-stimulated group | Dopamine concentration after stimulation, Mean ± Standard deviation [nM] | Percentage relative to non-stimulated group [%] | Dopamine concentration after stimulation
1 | N[C@@H](Cc1c[nH]c2ccccc12)C(=O)N[C@@H](Cc1ccccc1)C(=O)O [WF, tryptophanylphenylalanine] (H-Trp-Phe-OH) | did not exhibit such a significant increase in dopamine concentration | 19.56 ± 1.35 | 83.23 | 18.97 nM and 18.60 nM and 21.10 nM
2 | N[C@@H](Cc1c[nH]c2ccccc12)C(=O)N[C@@H](Cc1c[nH]cn1)C(=O)O [WH, tryptophanylhistidine] (H-Trp-His-OH) | did not exhibit such a significant increase in dopamine concentration | 22.15 ± 4.13 | 94.26 | 26.89 nM and 19.36 nM and 20.20 nM
3 | CSCC[C@H](NC(=O)[C@@H](N)Cc1c[nH]c2ccccc12)C(=O)O [WM, tryptophanylmethionine] (H-Trp-Met-OH) | did not exhibit such a significant increase in dopamine concentration | 24.57 ± 7.88 | 104.55 | 20.58 nM and 19.48 nM and 33.64 nM
4 | N=C(N)NCCC[C@H](NC(=O)[C@@H](N)Cc1c[nH]c2ccccc12)C(=O)O [WR, tryptophanylarginine] (H-Trp-Arg-OH) | significant increase in dopamine concentration | 36.24 ± 2.10 | 154.23 | 38.47 nM and 34.30 nM and 35.95 nM

Reference: US20260263418A1, “AGENTS FOR ENHANCING DOPAMINE RELEASE, IMPROVING MOTOR CONTROL FUNCTION, IMPROVING MOTOR LEARNING FUNCTION AND IMPROVING ACTIVITY MOTIVATION” (MEIJI CO., LTD., priority 2023, published 2026)
